In patent US10065941B2, “Aminotriazine derivative and pharmaceutical composition comprising the same” (Shionogi & Co., Ltd., priority 2013, dated 2018) one finds IC50 data, which are given here for 56 compounds.

As a reminder, the IC50 is the point on the concentration scale where inhibition reaches its midpoint.

Structures are written as SMILES.

Chain of human P2X3 receptor (P56373 whole entry): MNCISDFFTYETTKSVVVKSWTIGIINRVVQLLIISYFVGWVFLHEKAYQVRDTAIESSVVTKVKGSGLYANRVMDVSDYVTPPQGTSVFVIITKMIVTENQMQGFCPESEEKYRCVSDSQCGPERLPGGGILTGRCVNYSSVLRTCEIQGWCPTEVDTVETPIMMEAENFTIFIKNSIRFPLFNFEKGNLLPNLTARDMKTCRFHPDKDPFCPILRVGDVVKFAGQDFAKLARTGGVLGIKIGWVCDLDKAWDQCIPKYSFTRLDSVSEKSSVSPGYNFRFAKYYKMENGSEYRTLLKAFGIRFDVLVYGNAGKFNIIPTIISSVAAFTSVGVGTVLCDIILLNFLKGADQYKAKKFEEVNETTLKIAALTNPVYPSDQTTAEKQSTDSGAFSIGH

The target of this test is human P2X3 receptor (Homo sapiens (Human), UniProt P56373). The test is described as follows: Evaluation of human P2X3 receptor inhibitory activity (Test Example 1). Format: cell-based. Particulars: C6BU-1 cell transfected with human P2X3 receptor gene, FLIPR 384. The method in brief:
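FLIPR calcium read-out: signal taken as peak fluorescence after ATP addition divided by starting fluorescence, and IC50 calculated from it. Compound added 5 min before 150 nM ATP solution (pre-dispense stock) to Fluo-3-AM-loaded C6BU-1 cells stably transfected with human P2X3; HEPES buffer pH 7.5 with probenecid.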
As to `C[C@@H](Cn1c(=O)[nH]/c(=N\c2ccc(Oc3ccccn3)cc2)n(CC2CCC3(CC2)CC3)c1=O)C(=O)O` [Compound I-202], the IC50 worked out at 0.008 µM.
Compound `COC(=O)[C@@H](Cn1c(=O)[nH]/c(=N\c2ccc(Oc3ccccn3)cc2)n(Cc2ccc(Cl)cc2)c1=O)OC` [Compound I-203] gave an IC50 of 0.003 µM.
As for `COC(=O)[C@@H](C)Cn1c(=O)[nH]/c(=N\c2ccc(Oc3ccccn3)c(F)c2)n(Cc2ccc(C)cc2)c1=O` [Compound I-204], inhibition was half-maximal at 0.004 µM (IC50).
For the compound `COC(=O)[C@@H](C)Cn1c(=O)[nH]/c(=N\c2ccc(Oc3ccccn3)c(F)c2)n(Cc2ccc(Cl)cc2)c1=O` [Compound I-205], the IC50 amounted to 0.012 µM.
In turn, `COC(=O)[C@@H](C)Cn1c(=O)[nH]/c(=N\c2ccc(Oc3ccccn3)cc2)n(Cc2ccc(CF)cc2)c1=O` [Compound I-206] gave an IC50 of 0.01 µM.
The compound `COC(=O)[C@@H](C)Cn1c(=O)[nH]/c(=N\c2ccc(Oc3ncccc3F)cc2)n(Cc2ccc(CF)cc2)c1=O` [Compound I-207] had an IC50 of 0.012 µM.
Compound `COC(=O)[C@@H](C)Cn1c(=O)[nH]/c(=N\c2ccc(Oc3ccc(F)cn3)cc2)n(Cc2ccc(CF)cc2)c1=O` [Compound I-208] came in with an IC50 of 0.012 µM.
The result for `COC(=O)[C@@H](C)Cn1c(=O)[nH]/c(=N\c2ccc(Oc3cccc(F)n3)cc2)n(Cc2ccc(CF)cc2)c1=O` [Compound I-209] reads 0.008 µM.
To `Cc1ccc(Cn2c(=O)n(C[C@H](C)C(=O)O)c(=O)[nH]/c2=N\c2ccc(Oc3ccccn3)c(F)c2)cc1` [Compound I-210] belongs 0.007 µM.
The compound `C[C@@H](Cn1c(=O)[nH]/c(=N\c2ccc(Oc3ccccn3)c(F)c2)n(Cc2ccc(Cl)cc2)c1=O)C(=O)O` [Compound I-211] had an IC50 of 0.007 µM.
The result for `Cc1cc(/N=c2\[nH]c(=O)n(C[C@H](C)C(=O)O)c(=O)n2Cc2ccc(Cl)cc2)ccc1Oc1ccccn1` [Compound I-212] reads 0.01 µM; that for `Cc1ccc(Cn2c(=O)n(C[C@H](C)C(=O)O)c(=O)[nH]/c2=N\c2ccc(Oc3ccccn3)c(C)c2)cc1` [Compound I-213], 0.012 µM.
To `C[C@@H](Cn1c(=O)[nH]/c(=N\c2ccc(Oc3ccccn3)cc2)n(Cc2ccc(CF)cc2)c1=O)C(=O)O` [Compound I-214] belongs 0.011 µM; to `C[C@@H](Cn1c(=O)[nH]/c(=N\c2ccc(Oc3ncccc3F)cc2)n(Cc2ccc(CF)cc2)c1=O)C(=O)O` [Compound I-215], 0.016 µM; to `C[C@@H](Cn1c(=O)[nH]/c(=N\c2ccc(Oc3ccc(F)cn3)cc2)n(Cc2ccc(CF)cc2)c1=O)C(=O)O` [Compound I-216], 0.017 µM.
Compound `C[C@@H](Cn1c(=O)[nH]/c(=N\c2ccc(Oc3cccc(F)n3)cc2)n(Cc2ccc(CF)cc2)c1=O)C(=O)O` [Compound I-217] had an IC50 of 0.011 µM.
`COc1cccc(Oc2ccc(/N=c3\[nH]c(=O)n(C[C@H](C)C(=O)O)c(=O)n3Cc3ccc(C)cc3)cc2)n1` [Compound I-218] came in with an IC50 of 0.01 µM.
Compound `Cc1cc(/N=c2\[nH]c(=O)n(CC(C)(C)C(=O)O)c(=O)n2Cc2ccc(Cl)cc2)ccc1Oc1ccccn1` [Compound I-219] displayed an IC50 of 0.012 µM.
The result for `Cc1cc(/N=c2\[nH]c(=O)n([C@@H](C)[C@@H](C)C(=O)O)c(=O)n2Cc2ccc(Cl)cc2)ccc1Oc1ccccn1` [Compound I-220] reads 0.01 µM; that for `COC(=O)[C@@H](C)Cn1c(=O)[nH]/c(=N\c2ccc(Oc3cccc(OC)n3)cc2)n(Cc2ccc(C)cc2)c1=O` [Compound I-221], 0.011 µM; that for `COC(=O)[C@@H](C)Cn1c(=O)[nH]/c(=N\c2ccc(Oc3ccc(OC)cn3)cc2)n(Cc2ccc(C)cc2)c1=O` [Compound I-222], 0.004 µM.
Compound `COC(=O)[C@@H](C)Cn1c(=O)[nH]/c(=N\c2ccc(Oc3ccccn3)c(C)c2)n(Cc2ccc(Cl)cc2)c1=O` [Compound I-223] gave an IC50 of 0.011 µM.
To `COC(=O)[C@@H](C)Cn1c(=O)[nH]/c(=N\c2ccc(Oc3ccccn3)c(C)c2)n(Cc2ccc(C)cc2)c1=O` [Compound I-224] belongs 0.006 µM.
The compound `COC(=O)C(C)(C)Cn1c(=O)[nH]/c(=N\c2ccc(Oc3ccccn3)c(C)c2)n(Cc2ccc(Cl)cc2)c1=O` [Compound I-225] displayed an IC50 of 0.014 µM.
Compound `COC(=O)[C@H](C)[C@H](C)n1c(=O)[nH]/c(=N\c2ccc(Oc3ccccn3)c(C)c2)n(Cc2ccc(Cl)cc2)c1=O` [Compound I-226] showed an IC50 of 0.038 µM.
For `COC(=O)C(C)(C)Cn1c(=O)[nH]/c(=N\c2ccc(Oc3ccccn3)c(F)c2)n(Cc2ccc(Cl)cc2)c1=O` [Compound I-227], the midpoint of inhibition, the IC50, lay at 0.031 µM.
`COC(=O)[C@H](C)[C@H](C)n1c(=O)[nH]/c(=N\c2ccc(Oc3ccccn3)c(F)c2)n(Cc2ccc(Cl)cc2)c1=O` [Compound I-228] returned an IC50 of 0.021 µM.
To `COc1ccc(Oc2ccc(/N=c3\[nH]c(=O)n(C[C@H](C)C(=O)O)c(=O)n3Cc3ccc(C)cc3)cc2)nc1` [Compound I-229] belongs 0.006 µM.
`CC(C)(Cn1c(=O)[nH]/c(=N\c2ccc(Oc3ccccn3)c(F)c2)n(Cc2ccc(Cl)cc2)c1=O)C(=O)O` [Compound I-230]: the midpoint of inhibition, the IC50, lay at 0.011 µM.
Compound `C[C@@H](C(=O)O)[C@H](C)n1c(=O)[nH]/c(=N\c2ccc(Oc3ccccn3)c(F)c2)n(Cc2ccc(Cl)cc2)c1=O` [Compound I-231] returned an IC50 of 0.007 µM.
`C[C@@H](Cn1c(=O)[nH]/c(=N\c2ccc(Oc3ccc(CF)cn3)cc2)n(Cc2ccc(Cl)cc2)c1=O)C(=O)O` [Compound I-232] gave an IC50 of 0.005 µM.
The result for `C[C@@H](Cn1c(=O)[nH]/c(=N\c2ccc(Oc3ccc(CF)nc3)cc2)n(Cc2ccc(Cl)cc2)c1=O)C(=O)O` [Compound I-233] reads 0.006 µM.
In turn, `C[C@@H](Cn1c(=O)[nH]/c(=N\c2ccc(Oc3cccc(F)n3)cc2)n(CC2CCC3(CC2)CC3)c1=O)C(=O)O` [Compound I-234] yielded an IC50 of 0.007 µM.
The compound `C[C@@H](Cn1c(=O)[nH]/c(=N\c2ccc(Oc3ccc(F)cn3)cc2)n(CC2CCC3(CC2)CC3)c1=O)C(=O)O` [Compound I-235] gave a concentration for half-maximal inhibition (IC50) of 0.009 µM.
In turn, `COC(=O)[C@@H](C)Cn1c(=O)[nH]/c(=N\c2ccc(Oc3cccc(F)n3)cc2)n(CC2CCC3(CC2)CC3)c1=O` [Compound I-236] displayed an IC50 of 0.016 µM.
Turning to `COC(=O)[C@@H](C)Cn1c(=O)[nH]/c(=N\c2ccc(Oc3ccc(F)cn3)cc2)n(CC2CCC3(CC2)CC3)c1=O` [Compound I-237], half-maximal inhibition (IC50) required 0.014 µM.
The compound `COC(=O)[C@@H](C)Cn1c(=O)[nH]/c(=N\c2ccc(Oc3ccc(CF)cn3)cc2)n(Cc2ccc(Cl)cc2)c1=O` [Compound I-238] registered an IC50 of 0.005 µM.
Compound `COC(=O)[C@@H](C)Cn1c(=O)[nH]/c(=N\c2ccc(Oc3ccc(CF)nc3)cc2)n(Cc2ccc(Cl)cc2)c1=O` [Compound I-239] yielded an IC50 of 0.006 µM.
The compound `C[C@@H](Cn1c(=O)[nH]/c(=N\c2ccc(Oc3cc(CO)ccn3)cc2)n(Cc2ccc(Cl)cc2)c1=O)C(=O)O` [Compound I-240] gave an IC50 of 0.022 µM.
The compound `COCc1ccc(Oc2ccc(/N=c3\[nH]c(=O)n(C[C@H](C)C(=O)O)c(=O)n3Cc3ccc(Cl)cc3)cc2)nc1` [Compound I-241] showed an IC50 of 0.008 µM.
Compound `Cc1ccc(Cn2c(=O)n(C[C@H](C)C(=O)O)c(=O)[nH]/c2=N\c2ccc(Oc3ccc(CF)cn3)cc2)cc1` [Compound I-242] returned an IC50 of 0.008 µM.
As to `C[C@@H](Cn1c(=O)[nH]/c(=N\c2ccc(Oc3ccccn3)c(Cl)c2)n(Cc2ccc(Cl)cc2)c1=O)C(=O)O` [Compound I-243], the IC50 came to 0.007 µM.
To `C[C@@H](Cn1c(=O)[nH]/c(=N\c2ccc(Oc3ccccn3)c(F)c2)n(C[C@H]2CC[C@H](C)CC2)c1=O)C(=O)O` [Compound I-244] belongs 0.008 µM; to `COC(=O)[C@@H](C)Cn1c(=O)[nH]/c(=N\c2ccc(Oc3cccc(CO)n3)cc2)n(Cc2ccc(Cl)cc2)c1=O` [Compound I-245], 0.014 µM; to `COC(=O)[C@@H](C)Cn1c(=O)[nH]/c(=N\c2ccc(Oc3cccc(CO)n3)cc2)n(Cc2ccc(C)cc2)c1=O` [Compound I-246], 0.014 µM.
Take `COCc1ccc(Oc2ccc(/N=c3\[nH]c(=O)n(C[C@H](C)C(=O)OC)c(=O)n3Cc3ccc(Cl)cc3)cc2)nc1` [Compound I-247]: the IC50 amounted to 0.006 µM.
As to `COCc1cccc(Oc2ccc(/N=c3\[nH]c(=O)n(C[C@H](C)C(=O)OC)c(=O)n3Cc3ccc(Cl)cc3)cc2)n1` [Compound I-249], the IC50 came out at 0.036 µM.
Regarding `COCc1cccc(Oc2ccc(/N=c3\[nH]c(=O)n(C[C@H](C)C(=O)OC)c(=O)n3Cc3ccc(C)cc3)cc2)n1` [Compound I-250], the IC50 turned out to be 0.031 µM.
For the compound `CCc1ccc(Oc2ccc(/N=c3\[nH]c(=O)n(C[C@H](C)C(=O)OC)c(=O)n3Cc3ccc(Cl)cc3)cc2)nc1` [Compound I-251], the IC50 is 0.008 µM.
To `COC(=O)[C@@H](C)Cn1c(=O)[nH]/c(=N\c2ccc(Oc3ccccn3)c(Cl)c2)n(Cc2ccc(Cl)cc2)c1=O` [Compound I-252] belongs 0.014 µM; to `COCc1ccc(Oc2ccc(/N=c3\[nH]c(=O)n(C[C@H](C)C(=O)O)c(=O)n3Cc3ccc(C)cc3)cc2)nc1` [Compound I-254], 0.006 µM.
The result for `COCc1cccc(Oc2ccc(/N=c3\[nH]c(=O)n(C[C@H](C)C(=O)O)c(=O)n3Cc3ccc(Cl)cc3)cc2)n1` [Compound I-255] reads 0.018 µM; that for `COCc1cccc(Oc2ccc(/N=c3\[nH]c(=O)n(C[C@H](C)C(=O)O)c(=O)n3Cc3ccc(C)cc3)cc2)n1` [Compound I-256], 0.029 µM; that for `C[C@@H](Cn1c(=O)[nH]/c(=N\c2ccc(Oc3cccc(CO)n3)cc2)n(Cc2ccc(Cl)cc2)c1=O)C(=O)O` [Compound I-257], 0.016 µM.
To `CCc1ccc(Oc2ccc(/N=c3\[nH]c(=O)n(C[C@H](C)C(=O)O)c(=O)n3Cc3ccc(Cl)cc3)cc2)nc1` [Compound I-258] belongs 0.004 µM.
In turn, `CC(=O)c1ccc(Oc2ccc(/N=c3\[nH]c(=O)n(C[C@H](C)C(=O)O)c(=O)n3Cc3ccc(Cl)cc3)cc2)nc1` [Compound I-259] returned an IC50 of 0.005 µM.
